# Measurements taken from patent publication US20240215573A1, “LIQUID AGROCHEMICAL COMPOSITION” (NOURYON CHEMICALS INTERNATIONAL B.V., priority 2020, published 2024).
# Tests used:
# Assay type in all cases: in vivo
# Morning glory = experiment: Greenhouse Test 1: weed control by glufosinate with surfactants
# Text: (§1) In a first series of Examples, the following compounds are utilized to evaluate the efficacy of various herbicides in combination with various surfactants against two types of weeds: • Herbicides: 2,4-D ester; dicamba; and glufosinate • Surfactants: Glycerol Monosoyate+10EO; • Glycerol Monosoyate+15EO; • Glycerol Monosoyate+20EO; • Glycerol Monosoyate+30EO; • Glycerol Monosoyate+50EO; • Soybean oil+20EO; • Reference 1—Polyoxyethylene (20) sorbitan monolaurate • Reference 2—Sodium lauryl ether sulfate The following test protocol is used:
# (§2) Data is collected at end of each week for 4 weeks.
# Alfalfa [1] = experiment: Greenhouse Test 1: weed control by 2,4-D with surfactants
# Text: as §1, with “[…];” for “2,4-D ester;”
# as §2
# Alfalfa [2] = experiment: Greenhouse Test 1: weed control by dicamba with surfactants
# Text: as §1, §2
# [3] = test system: Anthracnose (Colletotrichum gloeosporioides); experiment: Greenhouse Test 2: Thiophenate methyl 70% WP with surfactants against anthracnose of grapes; conditions: Table C, summary in words
# Text: (§3) In a second series of Examples, the following compounds are utilized to evaluate the efficacy of various fungicides in combination with various surfactants against fungi: • Fungicides: Hexaconazole 5% EC; Dimethomorph 50WP; Thiophenate methyl 70% WP; Azoxystrobin 23 SC • Surfactants: • Dioctyl sulfosuccinate • Alkoxylated glyceride with 20EO; • Alkoxylated glyceride with 50EO; • Siloxane Polyalkyleneoxide Copolymer • Fungi: • Powdery mildew (Erysiphenecator); • Downy mildew (Plasmopara viticola); • Anthracnose (Colletotrichum gloeosporioides); and • Early blight (Alternariasolani). The following test protocol is used:
# (§4) There are 4 different fungicide formulations tested against 4 different pests (fungi). For each test there are untreated control (#1) and fungicide only w/o surfactant (#2). The same general protocol described above was used.
# Percent Disease Index (PDI) for powdery mildew, downy mildew, anthracnose and early blight diseases were calculated by following formulae: […]
# In case of grapes ratings on minimum ten leaves and a bunch were recorded on randomly selected canes. Ten such canes per plant were observed. The observations on 8 plants spread over four replication were recorded. Thus, the data presented on PDI is average of randomly selected 80 canes.
# fungi = experiment: Greenhouse Test 2: overall comparison over the 4 fungicide formulations and 4 fungi; conditions: all 4 fungicide formulations; summary in words
# Text: as §3, §4
# [4] = Table 3A: Glufosinate 3 oz/a, surfactant 0.25%
# [5] = Table 3B: Glufosinate 3 oz/a, surfactant 0.5%
# [6] = Table 3C: Glufosinate 6 oz/a, surfactant 0.25%
# [7] = Table 3D: Glufosinate 6 oz/a, surfactant 0.50%
# [8] = Table 1A: 2,4-D DMA 91 g ae/A, surfactant 0.1%
# [9] = Table 1B: 2,4-D DMA 91 g ae/A, surfactant 0.25%
# [10] = Table 1C: 2,4-D DMA 91 g ae/A, surfactant 0.25% (so in the source)
# [11] = Table 1D: 2,4-D DMA 91 g ae/A (so in the source), surfactant 0.25%
# [12] = Table 2A: Dicamba 23 g ae/A, surfactant 0.1%
# [13] = Table 2B: Dicamba 23 g ae/A, surfactant 0.25%
# [14] = Table 2C: Dicamba 45 g ae/A, surfactant 0.1%
# [15] = Table 2D: Dicamba 45 g ae/A, surfactant 0.25%
molecule,measurement,setting,value
CP(=O)(O)CCC(N)C(=O)O (centres unmarked) [Glufosinate],"% weed control, 7 day",Morning glory; [4],0.0%
same,"% weed control, 14 day",Morning glory; [4],40.0%
same,"% weed control, 21 day",Morning glory; [4],25.0%
same,"% weed control, 28 day",Morning glory; [4],12.5%
same,"% weed control, 7 day",Morning glory; [5],0.0%
same,"% weed control, 14 day",Morning glory; [5],40.0%
same,"% weed control, 21 day",Morning glory; [5],25.0%
same,"% weed control, 28 day",Morning glory; [5],12.5%
same,"% weed control, 7 day",Morning glory; [6],0.0%
same,"% weed control, 14 day",Morning glory; [6],55.0%
same,"% weed control, 21 day",Morning glory; [6],40.0%
same,"% weed control, 28 day",Morning glory; [6],27.5%
same,"% weed control, 7 day",Morning glory; [7],0.0%
same,"% weed control, 14 day",Morning glory; [7],55.0%
same,"% weed control, 21 day",Morning glory; [7],40.0%
same,"% weed control, 28 day",Morning glory; [7],27.5%
"CNC.O=C(O)COc1ccc(Cl)cc1Cl [2,4-D DMA]","% weed control, 7 day",Alfalfa [1]; [8],0.0%
same,"% weed control, 14 day",Alfalfa [1]; [8],0.0%
same,"% weed control, 21 day",Alfalfa [1]; [8],27.5%
same,"% weed control, 28 day",Alfalfa [1]; [8],32.5%
same,"% weed control, 7 day",Alfalfa [1]; [9],0.0%
same,"% weed control, 14 day",Alfalfa [1]; [9],0.0%
same,"% weed control, 21 day",Alfalfa [1]; [9],27.5%
same,"% weed control, 28 day",Alfalfa [1]; [9],32.5%
same,"% weed control, 7 day",Alfalfa [1]; [10],0.0%
same,"% weed control, 14 day",Alfalfa [1]; [10],7.5%
same,"% weed control, 21 day",Alfalfa [1]; [10],57.5%
same,"% weed control, 28 day",Alfalfa [1]; [10],57.5%
same,"% weed control, 7 day",Alfalfa [1]; [11],0.0%
same,"% weed control, 14 day",Alfalfa [1]; [11],7.5%
same,"% weed control, 21 day",Alfalfa [1]; [11],57.5%
same,"% weed control, 28 day",Alfalfa [1]; [11],57.5%
Sodium lauryl ether sulfate,"% weed control, 7 day",Morning glory; [4],85.0%
same,"% weed control, 14 day",Morning glory; [4],75.0%
same,"% weed control, 21 day",Morning glory; [4],55.0%
same,"% weed control, 28 day",Morning glory; [4],55.0%
same,"% weed control, 7 day",Morning glory; [5],87.5%
same,"% weed control, 14 day",Morning glory; [5],90.0%
same,"% weed control, 21 day",Morning glory; [5],87.5%
same,"% weed control, 28 day",Morning glory; [5],77.5%
same,"% weed control, 7 day",Morning glory; [6],92.5%
same,"% weed control, 14 day",Morning glory; [6],95.8%
same,"% weed control, 21 day",Morning glory; [6],95.8%
same,"% weed control, 28 day",Morning glory; [6],96.5%
same,"% weed control, 7 day",Morning glory; [7],90.0%
same,"% weed control, 14 day",Morning glory; [7],88.8%
same,"% weed control, 21 day",Morning glory; [7],91.3%
same,"% weed control, 28 day",Morning glory; [7],89.5%
same,"% weed control, 7 day",Alfalfa [1]; [8],67.5%
same,"% weed control, 14 day",Alfalfa [1]; [8],83.8%
same,"% weed control, 21 day",Alfalfa [1]; [8],73.8%
same,"% weed control, 28 day",Alfalfa [1]; [8],75.0%
same,"% weed control, 7 day",Alfalfa [1]; [9],67.5%
same,"% weed control, 14 day",Alfalfa [1]; [9],82.5%
same,"% weed control, 21 day",Alfalfa [1]; [9],72.5%
same,"% weed control, 28 day",Alfalfa [1]; [9],67.5%
same,"% weed control, 7 day",Alfalfa [1]; [10],72.5%
same,"% weed control, 14 day",Alfalfa [1]; [10],86.3%
same,"% weed control, 21 day",Alfalfa [1]; [10],86.3%
same,"% weed control, 28 day",Alfalfa [1]; [10],87.5%
same,"% weed control, 7 day",Alfalfa [1]; [11],75.0%
same,"% weed control, 14 day",Alfalfa [1]; [11],85.0%
same,"% weed control, 21 day",Alfalfa [1]; [11],82.5%
same,"% weed control, 28 day",Alfalfa [1]; [11],83.8%
same,"% weed control, 7 day",Alfalfa [2]; [12],72.5%
same,"% weed control, 14 day",Alfalfa [2]; [12],81.3%
same,"% weed control, 21 day",Alfalfa [2]; [12],71.3%
same,"% weed control, 28 day",Alfalfa [2]; [12],70.0%
same,"% weed control, 7 day",Alfalfa [2]; [13],65.0%
same,"% weed control, 14 day",Alfalfa [2]; [13],80.0%
same,"% weed control, 21 day",Alfalfa [2]; [13],67.5%
same,"% weed control, 28 day",Alfalfa [2]; [13],70.0%
same,"% weed control, 7 day",Alfalfa [2]; [14],72.5%
same,"% weed control, 14 day",Alfalfa [2]; [14],82.5%
same,"% weed control, 21 day",Alfalfa [2]; [14],76.3%
same,"% weed control, 28 day",Alfalfa [2]; [14],76.3%
same,"% weed control, 7 day",Alfalfa [2]; [15],67.5%
same,"% weed control, 14 day",Alfalfa [2]; [15],82.5%
same,"% weed control, 21 day",Alfalfa [2]; [15],75.0%
same,"% weed control, 28 day",Alfalfa [2]; [15],75.0%
Polyoxyethylene (20) sorbitan monolaurate,"% weed control, 7 day",Morning glory; [4],85.0%
same,"% weed control, 14 day",Morning glory; [4],80.0%
same,"% weed control, 21 day",Morning glory; [4],58.8%
same,"% weed control, 28 day",Morning glory; [4],56.3%
same,"% weed control, 7 day",Morning glory; [5],91.3%
same,"% weed control, 14 day",Morning glory; [5],92.0%
same,"% weed control, 21 day",Morning glory; [5],85.0%
same,"% weed control, 28 day",Morning glory; [5],82.5%
same,"% weed control, 7 day",Morning glory; [6],91.3%
same,"% weed control, 14 day",Morning glory; [6],91.3%
same,"% weed control, 21 day",Morning glory; [6],82.5%
same,"% weed control, 28 day",Morning glory; [6],81.3%
same,"% weed control, 7 day",Morning glory; [7],91.3%
same,"% weed control, 14 day",Morning glory; [7],93.8%
same,"% weed control, 21 day",Morning glory; [7],94.5%
same,"% weed control, 28 day",Morning glory; [7],95.8%
same,"% weed control, 7 day",Alfalfa [1]; [8],67.5%
same,"% weed control, 14 day",Alfalfa [1]; [8],83.8%
same,"% weed control, 21 day",Alfalfa [1]; [8],70.0%
same,"% weed control, 28 day",Alfalfa [1]; [8],72.5%
same,"% weed control, 7 day",Alfalfa [1]; [9],67.5%
same,"% weed control, 14 day",Alfalfa [1]; [9],81.3%
same,"% weed control, 21 day",Alfalfa [1]; [9],67.5%
same,"% weed control, 28 day",Alfalfa [1]; [9],72.5%
same,"% weed control, 7 day",Alfalfa [1]; [10],72.5%
same,"% weed control, 14 day",Alfalfa [1]; [10],86.3%
same,"% weed control, 21 day",Alfalfa [1]; [10],80.0%
same,"% weed control, 28 day",Alfalfa [1]; [10],85.0%
same,"% weed control, 7 day",Alfalfa [1]; [11],72.5%
same,"% weed control, 14 day",Alfalfa [1]; [11],82.5%
same,"% weed control, 21 day",Alfalfa [1]; [11],76.3%
same,"% weed control, 28 day",Alfalfa [1]; [11],81.3%
same,"% weed control, 7 day",Alfalfa [2]; [12],62.5%
same,"% weed control, 14 day",Alfalfa [2]; [12],73.8%
same,"% weed control, 21 day",Alfalfa [2]; [12],50.0%
same,"% weed control, 28 day",Alfalfa [2]; [12],62.5%
same,"% weed control, 7 day",Alfalfa [2]; [13],60.0%
same,"% weed control, 14 day",Alfalfa [2]; [13],70.0%
same,"% weed control, 21 day",Alfalfa [2]; [13],50.0%
same,"% weed control, 28 day",Alfalfa [2]; [13],50.0%
same,"% weed control, 7 day",Alfalfa [2]; [14],77.5%
same,"% weed control, 14 day",Alfalfa [2]; [14],87.5%
same,"% weed control, 21 day",Alfalfa [2]; [14],76.3%
same,"% weed control, 28 day",Alfalfa [2]; [14],81.3%
same,"% weed control, 7 day",Alfalfa [2]; [15],70.0%
same,"% weed control, 14 day",Alfalfa [2]; [15],83.8%
same,"% weed control, 21 day",Alfalfa [2]; [15],75.0%
same,"% weed control, 28 day",Alfalfa [2]; [15],78.8%
"CCCCCCCCOC(=O)CC(C(=O)OCCCCCCCC)S(=O)(=O)O (centres unmarked) [dioctyl sulfosuccinate, Dioctyl sulfosuccinate]",efficacy compared with alkoxylated glyceride with 20EO,[3],lack of efficacy as compared to the alkoxylated glyceride with 20EO
same,overall disease control with fungicides,fungi,overall good control in all cases
COc1c(Cl)ccc(Cl)c1C(=O)O [Dicamba],"% weed control, 7 day",Alfalfa [2]; [12],0.0%
same,"% weed control, 14 day",Alfalfa [2]; [12],20.0%
same,"% weed control, 21 day",Alfalfa [2]; [12],20.0%
same,"% weed control, 28 day",Alfalfa [2]; [12],12.5%
same,"% weed control, 7 day",Alfalfa [2]; [13],0.0%
same,"% weed control, 14 day",Alfalfa [2]; [13],20.0%
same,"% weed control, 21 day",Alfalfa [2]; [13],20.0%
same,"% weed control, 28 day",Alfalfa [2]; [13],12.5%
same,"% weed control, 7 day",Alfalfa [2]; [14],0.0%
same,"% weed control, 14 day",Alfalfa [2]; [14],50.0%
same,"% weed control, 21 day",Alfalfa [2]; [14],75.0%
same,"% weed control, 28 day",Alfalfa [2]; [14],55.0%
same,"% weed control, 7 day",Alfalfa [2]; [15],0.0%
same,"% weed control, 14 day",Alfalfa [2]; [15],50.0%
same,"% weed control, 21 day",Alfalfa [2]; [15],75.0%
same,"% weed control, 28 day",Alfalfa [2]; [15],55.0%
